Data as given in publication PMC11017246, “Discovery of GLPG2737, a Potent Type 2 Corrector of CFTR for the Treatment of Cystic Fibrosis in Combination with a Potentiator and a Type 1 Co-corrector” (Journal of Medicinal Chemistry, 2024).
Values joined by “and” are separate entries in the source; they are usually repeats but may differ in a detail not shown here. Identical values can stand only once.

Legend:
[1] = PK rat; assay type: in vivo; details: for CLu rat: unbound clearance; for clearance: read-out: CLp rat (converted); for Vd: read-out: Vss rat
Procedure: These studies were performed with naïve male Sprague–Dawley rats (Janvier France, 6–8 weeks old). Rats were dosed iv via a bolus in the tail vein with a dose level of 0.1 mg/kg or orally as a single esophageal gavage with a dose level of 5 mg/kg. For the iv route, the compound was formulated in PEG200/water (60/40; v/v). For the oral route, the compound was formulated in MC 0.5% (2/98) as a homogeneous suspension. Before the oral dosing, the animals were deprived of food for at least 12 h before compound administration until 3 h after administration. All animals had free access to the tap water. Blood samples were collected under light anesthesia and placed into tubes containing Li-heparin as an anticoagulant. Blood samples were collected up to 24 h after dosing (n = 3 rats per route). After centrifugation, the resulting plasma samples were assayed by LC-MS/MS with a nongood laboratory practice (non-GLP)-validated method. PK parameters were calculated by noncompartmental analysis using WinNonlin software (Certara, Princeton, NJ, USA).

[2] = PK dog; assay type: in vivo; details: for CLu dog: unbound clearance; for clearance: read-out: CLp dog (converted); for Vd: read-out: Vss dog
Procedure: These studies were performed with non-naïve male Beagle dogs (age 13.8 months old, origin: Marshall US, North Rose, NY 14516, USA; age 15.8 months old, origin: Harlan; age 17.7 months old, origin: Harlan). Dogs (n = 3) were dosed iv via a 10 min infusion via a catheter with a dose level of 1 mg/kg. After a washout of 3 days, they were dosed orally as a single gavage with a dose level of 5 or 1 mg/kg in PEG400/MC 0.5% or MC 0.5%. Before administration by the po route, animals were fasted for a period of at least 12 h before treatment, and food was given just after the 3 h of blood sampling. All animals had free access to tap water. Blood samples were taken without an anesthetic from a jugular or cephalic vein into tubes containing lithium heparin as an anticoagulant. Blood samples were taken up to 24 h after the start of the infusion. After centrifugation, the resulting plasma samples were assayed by LC-MS/MS with a nongood laboratory practice (non-GLP)-validated method. PK parameters were calculated by noncompartmental analysis using WinNonlin software (Certara, Princeton, NJ, USA).

[3] = Plasma protein binding, dog; assay type: in vitro ADME; details: for fraction unbound at 4 h, 5 μM: dog, pH 7.4, dog plasma, read-out: PPB % dog (converted)
Procedure: (§1) Plasma protein binding was determined by equilibrium dialysis using the Pierce Red Device plate with inserts (ThermoScientific). Test compound at 5 μM (0.5% DMSO) spiked in freshly thawed human, rat, mouse, or dog plasma (Bioreclamation INC, Westbury, NY, USA) was dialyzed against phosphate-buffered saline (PBS, pH 7.4) at 37 °C under shaking for 4 h. Aliquots were taken from each side of the well, and matrix matched. Proteins were precipitated with an excess of acetonitrile, samples were mixed and centrifuged, and the supernatant was analyzed by liquid chromatography–mass spectrometry/mass spectrometry (LC–MS/MS). Addition of compound peak areas in the buffer chamber and the plasma chamber was considered to be 100% compound.

[4] = Plasma protein binding, human; assay type: in vitro ADME; details: for fraction unbound at 4 h, 5 μM: human, pH 7.4, human plasma, read-out: PPB % human (converted)
Procedure: as §1

[5] = Hepatocyte stability, dog; assay type: in vitro ADME; details: for CLint scaled at 1 μM: read-out: Hep CLint,u dog (converted)
Procedure: (§2) The hepatocyte stability assay was performed by incubation of test compound at 1 μM, 0.03% DMSO in modified Krebs–Henseleit buffer with suspension of pooled cryopreserved hepatocytes (BioIVT, Hicksville, NY, USA) from mouse, rat, dog, or human (BioIVT, Hicksville, NY, USA) at 0.5 million viable hepatocytes/mL. Before adding the hepatocytes (time zero) and after 10, 20, 45, 90, 120, and 180 min of incubation (n = 2) at 37 °C while gently shaking, the reaction was stopped and proteins were precipitated with an excess of acetonitrile containing an internal standard. The samples were mixed, centrifuged, and filtered, and the supernatant was analyzed by liquid chromatography–mass spectrometry/mass spectrometry (LC–MS/MS). The instrument responses (peak areas/IS peak areas) were referenced to the zero-time point samples (considered as 100%) in order to determine the percentage of compound remaining.

[6] = Hepatocyte stability, rat; assay type: in vitro ADME; details: for CLint scaled at 1 μM: read-out: Hep CLint,u rat (converted)
Procedure: as §2

[7] = Plasma protein binding, rat; assay type: in vitro ADME; details: pH 7.4, read-out: PPB % rat (converted)
Procedure: as §1

[8] = system: CYP3A4; experiment: CYP3A4 induction (mRNA) in human hepatocytes; assay type: in vitro ADME; details: for CYP (3A4) mRNA induction, result in words: compared with positive control rifampicin
Procedure: Cryopreserved human hepatocytes from a single donor were seeded at 0.1 × 10^6 cells/well. The next day, cells were dosed with test compound in assay medium (final test compound concentration 10 μM; final DMSO concentration 0.1%). Positive control inducer, rifampicin, for CYP3A4, was incubated alongside the test compound. Negative control wells were included where the test compound is replaced by vehicle solvent (0.1% DMSO in assay medium). Each test or control compound was dosed in triplicate at a single concentration (10 μM). The cells were exposed to the solutions for 72 h with fresh solution added every 24 h. For mRNA assessment, all media was removed from each of the wells, and the cells were washed once. The cells were lysed, and total RNA was then isolated from the hepatocyte lysates. Reverse transcription was performed, and quantitative PCR analysis was performed on the resulting cDNA, using gene-specific primer probe sets for CYP3A4 target cDNA and endogenous control. Samples were analyzed using an ABI 7900 HT real time PCR system. For mRNA assessment, relative fold mRNA expression was determined based on the threshold cycle (CT) data of target gene relative to endogenous control for each reaction and normalized to negative control using the 2-ΔΔCT method. Data were expressed as fold activation relative to the vehicle control and, as a percent, to the 10 μM rifampicin using the following formula: % of positive control = ((fold increase of the cpd relative to vehicle control – 1)/(fold increase of the rifampicin at 10 μM – 1)) × 100.

[9] = Hepatocyte stability, human; assay type: in vitro ADME; details: for CLint scaled at 1 μM: read-out: Hep CLint,u human
Procedure: as §2

[10] = male, Sprague-Dawley, plasma, 0.1 mg/kg, iv
[11] = male, Sprague-Dawley, plasma, 0.1 mg/kg, iv, read-out: t1/2 iv rat (converted)
[12] = male, Sprague-Dawley, plasma, iv, 0.1 mg/kg, iv
[13] = male, beagle, plasma, 1 mg/kg, iv
[14] = pooled cryopreserved hepatocytes in suspension

CN(C)S(=O)(=O)NC(=O)c1cc(N2CCC(N3CCOCC3)CC2)c2c(C3CCC3)nn(-c3ccc(F)cc3)c2n1 [Compound 51]
CLu rat ([1]; iv): 220 mL/min/kg
clearance [1, 10]: 3.17 mL/min/kg
half-life at 24 h [1, 11]: 3.6 h
Vd [1, 12]: 0.81 L/kg
CLu dog ([2]; iv): 202 mL/min/kg
half-life at 24 h ([2]; male, beagle, plasma, 0.1 mg/kg, iv, read-out: t1/2 iv dog (converted)): 4.9 h
clearance [2, 13]: 2.67 mL/min/kg
Vd [2, 13]: 0.9 L/kg
PPB % dog ([3]; dog plasma): 98,7%
fraction unbound at 4 h, 5 μM ([3]; plasma): 0.01
PPB % human ([4]; human plasma): 99% and 98.7%
fraction unbound at 4 h, 5 μM ([4]; plasma): 0.02
CLint scaled at 1 μM ([5]; pooled cryopreserved hepatocytes in suspension, dog hepatocytes): 31.7 mL/min/kg
CLint scaled at 1 μM [6, 14]: 49 mL/min/kg
fraction unbound at 4 h, 5 μM [7]: 0.015
CYP induction @10 μM (mRNA) % rifampicin ([8]; data generated by AbbVie team): 45%
CYP induction @10 μM (mRNA) % rifampicin ([8]; data generated by Galapagos): 24%
CYP (3A4) mRNA induction, result in words [8]: demonstrated CYP mRNA induction
CLint scaled at 1 μM [9, 14]: < 11 mL/min/kg

COC1CCN(C2CCN(c3cc(C(=O)NS(=O)(=O)N(C)C)nc4c3c(C3CCC3)nn4-c3ccc(F)cc3)CC2)CC1 [Compound 52, 3-Cyclobutyl-N-(N,N-dimethylsulfamoyl)-1-(4-fluorophenyl)-4-(4-methoxy-[1,4′-bipiperidin]-1′-yl)-1H-pyrazolo[3,4-b]pyridine-6-carboxamide]
F (%) rat ([1]; 30 mg/kg po): 69.1%
exposure versus dose ([1]; dose of 5 to 300 mg/kg): dose proportional increase in exposure
CLu rat ([1]; iv): 333 mL/min/kg
clearance [1, 10]: 5.33 mL/min/kg
half-life [1, 11]: 3.45 h
Vd [1, 12]: 1.38 L/kg
F (%) dog ([2]; 5 mg/kg po): 59.5%
CLu dog ([2]; iv): 178 mL/min/kg
clearance [2, 13]: 3.5 mL/min/kg
Vd [2, 13]: 1.37 L/kg
half-life ([2]; male, beagle, plasma, 1 mg/kg, iv, read-out: t1/2 iv dog (converted)): 5.4 h
fraction unbound at 4 h, 5 μM ([3]; dog plasma): 0.025
fraction unbound at 4 h, 5 μM ([4]; human plasma): 0.02
Hepatocyte stability: %LBF dog ([5]; dog hepatocytes): 14 %LBF
Hepatocyte stability: predicted hepCl dog ([5]; dog hepatocytes, 1 µM): < 5.83 mL/min/kg
CLint scaled at 1 μM ([5]; dog, pooled cryopreserved dog hepatocytes in suspension): < 24.8 mL/min/kg
Hepatocyte stability: %LBF rat ([6]; rat hepatocytes): 30 %LBF
Hepatocyte stability: predicted hepCl rat ([6]; rat hepatocytes, 1 µM): 25.5 mL/min/kg
CLint scaled at 1 μM ([6]; rat hepatocytes): 66.2 mL/min/kg
fraction unbound at 4 h, 5 μM ([7]; rat): 0.016
CYP induction @10 μM (mRNA) % rifampicin ([8]; data generated by AbbVie team): 4%
CYP induction @10 μM (mRNA) % rifampicin ([8]; data generated by Galapagos): 6%
CYP (3A4) mRNA induction, result in words [8]: devoid of any CYP mRNA induction liability
Hepatocyte stability: %LBF human ([9]; human hepatocytes): 22 %LBF
Hepatocyte stability: predicted hepCl human ([9]; human hepatocytes, 1 µM): < 4.67 mL/min/kg
CLint scaled at 1 μM ([9]; human hepatocytes): < 12.8 mL/min/kg
